Patent US20050014942A1, “Amide derivatives and drugs” (priority 2001, published 2005)
Structures can show the parent of a compound that is named as a salt.

Tested on: collagen production induced by TGF-β (NHDF cells)
Assay: Inhibitory effect on collagen production induced by TGF-β, [3H] proline uptake (NHDF cells)
Type: cell-based, human
Details: TGF-β1 3 ng/ml; for inhibition at 1 µM / inhibition at 3 µM / inhibition at 10 µM: Homo sapiens, NHDF
Method: As an index of collagen production, the uptake of [^3H] proline was measured.
Using a 96-well microplate, normal human skin derived fibroblast (NHDF, 10^4/well) or human embryonic lung fibroblast (TIG-3, 10^4/well) were cultured in a 10% fetal calf serum (FCS)-containing Dulbecco's modified Eagle medium (DMEM) for one day. After removing the culture supernatant, the cells were washed once with a 0.1% bovine serum albumin (BSA)-containing DMEM medium and then cultured in the 0.1% bovine serum albumin (BSA)-containing DMEM medium for one day. After adding each of the test compounds in each concentration (1, 3, 10 μM), the cells were cultured and, after adding TGF-β1 (3 ng/ml) and [^3H] proline (18.5 kBq/well), the cells were further cultured for additional one day.
After removing the culture supernatant, the cells were washed twice with a phosphate buffer solution (PBS) and dissolved with 0.3M NaOH and 1% sodium dodecylsulfate (SDS), and then each protein fraction was precipitated with trichloroacetic acid (TCA) After the precipitate was filtered through a glass filter (GF/B) and washed, the quantity of [^3H] proline on the glass filter was measured by a liquid scintillation counter. The number of cells was measured by a cell growth measuring kit (XTT, Roche) and the uptake of [^3H] proline was corrected by the number of cells. Inhibitory ratio was calculated as compared with the case where a difference between the uptake of [^3H] proline with or without TGF-β1.

Row | SMILES | inhibition at 1 µM (1 μM) [%] | inhibition at 3 µM (3 μM) [%] | inhibition at 10 µM (10 μM) [%] | Inhibitory effect on collagen production induced by TGF-β (% inhibition) (1 μM) [%] | Inhibitory effect on collagen production induced by TGF-β (% inhibition) (3 μM) [%] | Inhibitory effect on collagen production induced by TGF-β (% inhibition) (10 μM) [%]
1 | COC(=O)c1ccc(-c2c(/C=C/C(=O)N3CCC(C(C)=O)(c4ccccc4)CC3)c3cc(C)ccc3n2C)cc1 [Example 141, 4-acetyl-1-{(2E)-3-[1,5-dimethyl-2-(4-carbomethoxyphenyl)-1H-indol-3-yl]prop-2-enoyl}-4-phenylpiperidine] | 111 | 114 | – | – | – | –
2 | CN1CCC(N(C)C(=O)/C=C/c2c(-c3ccccc3)n(C)c3ncccc23)CC1 [Example 122, (2E)-N-methyl-N-(1-methyl-piperidin-4-yl)-3-(1-methyl-2-phenyl-1H-pyrrolo[2,3-b]pyridin-3-yl)acrylamide] | 20 | 57 | – | – | – | –
3 | CN(CCC(O)c1ccccc1)C(=O)/C=C/c1c(-c2ccc3c(c2)OCO3)n(C)c2ccccc12 (stereo not shown) [Example 112, (2E)-N-methyl-N-(3-hydroxy-3-phenylpropyl)-3-[1-methyl-2-(3,4-methylenedioxyphenyl)-1H-indol-3-yl]acrylamide] | – | 73 | 143 | – | – | –
4 | COC(=O)c1ccc(-c2c(/C=C/C(=O)N(C)C3CCN(C)CC3)c3cc(C)ccc3n2C)cc1 [Example 143, (2E)-N-methyl-N-(1-methylpiperidin-4-yl)-3-[1,5-dimethyl-2-(4-carbomethoxyphenyl)-1H-indol-3-yl]acrylamide] | 42 | 104 | – | – | – | –
5 | CCOC(=O)C1CCCC1NC(=O)c1cnc(N2CCN(C(=O)c3c(-c4ccccc4)n(C)c4ccc(C)cc34)CC2)cn1 (stereo not shown) [Example 129, Ethyl 2-{N-[(5-{4-[(1,5-dimethyl-2-phenyl-1H-indol-3-yl)carbonyl]piperazin-1-yl}pyrazin-2-yl)carbonyl]amino}-1-cyclopentanecarboxylate] | 75 | 73 | – | – | – | –
6 | CC(=O)OCCN(Cc1ccccc1)C(=O)c1cnc(N2CCN(C(=O)c3c(-c4ccccc4)n(C)c4ccc(C)cc34)CC2)cn1 [Example 125, N-benzyl-N-[(5-{4-[(1,5-dimethyl-2-phenyl-1H-indol-3-yl)carbonyl]piperazin-1-yl}pyrazin-2-yl)carbonyl]aminoethyl acetate] | 52 | 91 | – | – | – | –
7 | COc1cc2c(cc1OC)C(CC(=O)O)N(C(=O)/C=C/c1c(-c3ccccc3)n(C)c3ncccc13)CC2 (stereo not shown) [Example 124, {6,7-dimethoxy-2-[(2E)-3-(1-methyl-2-phenyl-1H-pyrrolo[2,3-b]pyridin-3-yl)prop-2-enoyl]-1,2,3,4-tetrahydroisoquinolin-1-yl}acetic acid] | – | 108 | – | 21 | – | –
8 | Cn1c(-c2ccccc2)c(/C=C/C(=O)N[C@@H]2c3ccccc3C[C@@H]2O)c2cc3c(cc21)OCO3 [Example 97, (2E)-N-[(1R, 2S)-2-hydroxy-2,3-dihydro-1H-inden-1-yl]-3-(1-methyl-2-phenyl-5,6-methylenedioxy-1H-indol-3-yl)acrylamide] | 37 | 69 | – | – | – | –
9 | COc1ccc(CCN(C)C(=O)/C=C/c2c(-c3ccc4c(c3)OCO4)n(C)c3ccccc23)cc1OC [Example 115, (2E)-N-methyl-N-[2-(3,4-dimethoxyphenyl)ethyl]-3-[1-methyl-2-(3,4-methylenedioxyphenyl)-1H-indol-3-yl]acrylamide] | – | 84 | 155 | – | – | –
10 | COc1cc2c(cc1OC)CN(C(=O)/C=C/c1c(-c3ccncc3)n(C)c3ncccc13)CC2 [Example 135, 2-{(2E)-3-[1-methyl-2-(4-pyridyl)-1H-pyrrolo[2,3-b]pyridin-3-yl]prop-2-enoyl}-6,7-dimethoxy-1,2,3,4-tetrahydroisoquinoline dihydrochloride] | 78 | 110 | – | – | – | –
11 | Cc1ncsc1CCNC(=O)c1cnc(N2CCN(C(=O)c3c(-c4ccccc4)n(C)c4ccc(Br)cc34)CC2)cn1 [Example 144, 5-{4-[(5-bromo-1-methyl-2-phenyl-1H-indol-3-yl)carbonyl]piperazin-1-yl}-N-[2-(4-methyl-1,3-thiazol-5-yl)ethyl]pyrazine-2-carboxamide hydrochloride] | 78 | 85 | – | – | – | –
12 | CN(CCC(O)c1ccccc1)C(=O)/C=C/c1c(-c2ccc(F)cc2)n(C)c2ccccc12 (stereo not shown) [Example 110, (2E)-N-methyl-N-(3-hydroxy-3-phenylpropyl)-3-[1-methyl-2-(4-fluorophenyl)-1H-indol-3-yl]acrylamide] | – | 66 | 143 | – | – | –
13 | CC1c2cc(O)c(O)cc2CCN1C(=O)/C=C/c1c(-c2ccccc2)n(C)c2cc3c(cc12)OCO3 (stereo not shown) [Example 117, 2-{(2E)-3-[1-methyl-2-phenyl-(5,6-methylenedioxy)-1H-indol-3-yl]prop-2-enoyl}-1-methyl-6,7-dihydroxy-1,2,3,4-tetrahydroisoquinoline] | – | – | – | – | 82 | 140
14 | Cc1ccc2c(c1)c(C(=O)N1CCN(c3cnc(C(=O)NCCc4ccc(O)cc4)cn3)CC1)c(-c1ccccc1)n2C [Example 145, 5-{4-[(1,5-dimethyl-2-phenyl-1H-indol-3-yl)carbonyl]piperazin-1-yl}-N-[2-(4-hydroxyphenyl)ethyl]pyrazine-2-carboxamide hydrochloride] | 55 | 64 | – | – | – | –
15 | COc1cc2c(cc1OC)CN(C(=O)/C=C/c1c(-c3ccccc3)n(C)c3nccnc13)CC2 [Example 128, 2-[(2E)-3-(5-methyl-6-phenyl-5H-pyrrolo[2,3-b]pyrazin-7-yl)prop-2-enoyl]-6,7-dimethoxy-1,2,3,4-tetrahydroisoquinoline hydrochloride] | 61 | 76 | – | – | – | –
16 | COc1cc2c(cc1OC)C(CC(=O)O)N(C(=O)/C=C/c1c(-c3ccccc3)n(C)c3ncccc13)CC2.Cl (stereo not shown) [Example 134, {6,7-dimethoxy-2-[(2E)-3-(1-methyl-2-phenyl-1H-pyrrolo[2,3-b]pyridin-3-yl)prop-2-enoyl]-1,2,3,4-tetrahydroisoquinolin-1-yl}acetic acid hydrochloride] | – | – | – | 90 | 111 | –
17 | Cn1c(-c2ccccc2)c(/C=C/C(=O)NCC2CN(Cc3ccc(F)cc3)CCO2)c2ccccc21 (stereo not shown) [Example 30, (2E)-N-{[4-(4-fluorobenzyl)morpholin-2-yl]methyl}-3-(1-methyl-2-phenyl-1H-indol-3-yl)acrylamide hydrochloride] | 41 | 94 | 148 | – | – | –
18 | COc1ccc(-c2c(/C=C/C(=O)N3CCc4cc(OC)c(OC)cc4C3)c3cccnc3n2C)cc1OC [Example 131, 2-{(2E)-3-[1-methyl-2-(3,4-dimethoxyphenyl)-1H-pyrrolo[2,3-b]pyridin-3-yl]prop-2-enoyl}-6,7-dimethoxy-1,2,3,4-tetrahydroisoquinoline hydrochloride] | 96 | 141 | – | – | – | –
19 | COc1cc2c(cc1OC)CN(C(=O)/C=C/c1c(-c3ccccc3)n(C)c3ncccc13)CC2 [Example 109, 2-[(2E)-3-(1-methyl-2-phenyl-1H-pyrrolo[2,3-b]pyridin-3-yl)prop-2-enoyl]-6,7-dimethoxy-1,2,3,4-tetrahydroisoquinoline hydrochloride] | 50 | 76 | 135 | – | – | –
